Measured values: ChEMBL document CHEMBL1250518, “Nonsteroidal dissociated glucocorticoid agonists containing azaindoles as steroid A-ring mimetics” (J Med Chem, 2010)

Key:
Mus musculus [1] = experiment: Antiinflammatory effect in collagen and Freund's complete adjuvant-induced B10.RIII mouse arthritis model assessed as inhibition of disease progression at 30 mg/kg, po qd for 5 weeks; format: functional; settings: 840 h
[2] = Cmax in Sprague-Dawley rat at 30 mg/kg, po; format: ADME, organism-based; set-up: dose 30 mg/kg, route oral; settings: in vivo
[3] = Half life in Sprague-Dawley rat at 5 mg/kg, iv; format: ADME, organism-based; set-up: dose 5 mg/kg, route intravenous; settings: in vivo
Mus musculus [4] = experiment: Toxicity in B10.RIII mouse assessed as increase of triglyceride level at 30 mg/kg, po qd for 5 weeks; format: organism-based; set-up: dose 30 mg/kg, route oral; settings: in vivo, 840 h
Mus musculus [5] = experiment: Toxicity in collagen and Freund's complete adjuvant-induced B10.RIII mouse arthritis model assessed as increase of serum insulin level at 30 mg/kg, po qd for 5 weeks; format: organism-based; set-up: dose 30 mg/kg, route oral; settings: in vivo, 840 h
Mus musculus [6] = experiment: Toxicity in B10.RIII mouse assessed as increase of serum insulin level at 30 mg/kg, po qd for 5 weeks; format: organism-based; set-up: dose 30 mg/kg, route oral; settings: in vivo, 840 h
Mus musculus [7] = experiment: Antiinflammatory activity in po dosed BALB/c mouse assessed as reduction of LPS-induced plasma TNFalpha level administered 1 hr before LPS challenge by ELISA; format: functional
[8] = target: T1, Mineralocorticoid receptor (Homo sapiens, UniProt P08235); experiment: Binding affinity to mineralocorticoid receptor expressed in baculovirus-infected insect cells using tetramethylrhodamine labeled Dexamethasone by fluorescence polarization microplate assay
T1 sequence (P08235 whole entry): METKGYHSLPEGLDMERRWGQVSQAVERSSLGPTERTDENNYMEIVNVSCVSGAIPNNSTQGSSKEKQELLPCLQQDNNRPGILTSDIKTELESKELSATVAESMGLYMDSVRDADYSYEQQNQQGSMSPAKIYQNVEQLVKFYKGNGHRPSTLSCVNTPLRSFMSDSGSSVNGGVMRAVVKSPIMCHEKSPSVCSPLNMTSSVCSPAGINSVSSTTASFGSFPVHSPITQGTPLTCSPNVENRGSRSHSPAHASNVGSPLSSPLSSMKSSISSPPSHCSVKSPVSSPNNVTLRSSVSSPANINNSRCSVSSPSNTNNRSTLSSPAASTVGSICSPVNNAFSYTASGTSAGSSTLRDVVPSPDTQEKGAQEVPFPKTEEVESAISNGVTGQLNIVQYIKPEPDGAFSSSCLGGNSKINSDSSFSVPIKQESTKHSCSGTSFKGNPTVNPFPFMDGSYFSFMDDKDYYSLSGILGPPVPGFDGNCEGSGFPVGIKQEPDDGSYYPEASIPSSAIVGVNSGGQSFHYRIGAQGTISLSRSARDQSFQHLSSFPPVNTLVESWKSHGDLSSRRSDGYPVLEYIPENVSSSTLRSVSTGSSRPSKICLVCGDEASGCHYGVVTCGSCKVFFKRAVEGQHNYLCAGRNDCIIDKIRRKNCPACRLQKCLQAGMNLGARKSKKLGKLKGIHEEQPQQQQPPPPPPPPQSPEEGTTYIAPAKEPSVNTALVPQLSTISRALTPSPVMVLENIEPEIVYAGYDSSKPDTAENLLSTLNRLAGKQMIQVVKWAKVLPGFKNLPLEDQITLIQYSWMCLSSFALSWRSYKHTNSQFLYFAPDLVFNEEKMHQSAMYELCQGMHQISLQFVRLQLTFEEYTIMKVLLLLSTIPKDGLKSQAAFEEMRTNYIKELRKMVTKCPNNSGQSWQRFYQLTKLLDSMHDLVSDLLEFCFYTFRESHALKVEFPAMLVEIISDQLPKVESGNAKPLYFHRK

Mus musculus [9] = experiment: Toxicity in collagen and Freund's complete adjuvant-induced B10.RIII mouse arthritis model assessed as increase of body fat content at 30 mg/kg, po qd for 5 weeks; format: organism-based; set-up: dose 30 mg/kg, route oral; settings: in vivo, 840 h
Glucocorticoid receptor = target: T2, Glucocorticoid receptor (Homo sapiens, UniProt P04150); experiment: Transactivation activity at glucocorticoid receptor in human HeLa cells transfected with luciferase gene linked to MMTV promoter by luciferase assay; format: cell-based
T2 sequence (P04150 whole entry): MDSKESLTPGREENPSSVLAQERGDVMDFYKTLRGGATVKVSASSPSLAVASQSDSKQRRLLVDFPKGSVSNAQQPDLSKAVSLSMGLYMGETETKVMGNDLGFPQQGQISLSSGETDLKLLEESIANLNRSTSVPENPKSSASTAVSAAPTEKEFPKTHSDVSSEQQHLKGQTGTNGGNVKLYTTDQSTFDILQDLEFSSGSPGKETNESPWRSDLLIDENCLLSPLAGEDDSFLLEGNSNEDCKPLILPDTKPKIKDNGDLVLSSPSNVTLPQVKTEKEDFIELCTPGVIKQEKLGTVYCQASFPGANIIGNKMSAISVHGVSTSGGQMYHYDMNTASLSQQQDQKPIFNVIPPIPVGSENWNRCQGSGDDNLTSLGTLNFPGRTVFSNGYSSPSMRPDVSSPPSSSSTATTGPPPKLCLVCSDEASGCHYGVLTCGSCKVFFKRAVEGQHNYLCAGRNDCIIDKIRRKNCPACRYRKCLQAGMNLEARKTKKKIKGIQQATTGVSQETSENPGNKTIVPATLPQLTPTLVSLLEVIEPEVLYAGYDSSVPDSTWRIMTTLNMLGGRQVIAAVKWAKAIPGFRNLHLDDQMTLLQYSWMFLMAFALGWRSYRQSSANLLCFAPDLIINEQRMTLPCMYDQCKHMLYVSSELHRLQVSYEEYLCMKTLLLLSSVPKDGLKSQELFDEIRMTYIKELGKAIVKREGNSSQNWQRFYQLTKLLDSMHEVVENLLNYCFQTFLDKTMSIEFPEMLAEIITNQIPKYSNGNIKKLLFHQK

[10] = Volume of distribution at steady state in Sprague-Dawley rat at 5 mg/kg, iv; format: ADME, organism-based; set-up: dose 5 mg/kg, route intravenous; settings: in vivo, read-out: Vdss
Mus musculus [11] = experiment: Toxicity in collagen and Freund's complete adjuvant-induced B10.RIII mouse arthritis model assessed as increase of triglyceride level at 30 mg/kg, po qd for 5 weeks; format: organism-based; set-up: dose 30 mg/kg, route oral; settings: in vivo, 840 h
Rattus norvegicus = experiment: Oral bioavailability in Sprague-Dawley rat at 30 mg/kg; format: ADME, organism-based; settings: in vivo

Cmax [2]: 444 ng/mL | half-life [3]: 1.85 h | IC50 [8]: 210 nM | IC50 (Glucocorticoid receptor): 80 nM | Vd [10]: 7.6 L/kg | F (Rattus norvegicus): 48%
SMILES: CC(C)(C[C@@](O)(Cc1cc2ccncc2[nH]1)C(F)(F)F)c1cc(F)ccc1O
inhibition in vivo at 30 mg/kg (Mus musculus [1]): 92% | Activity (Mus musculus [4]): Toxic | Activity (Mus musculus [5]): Toxic | Activity (Mus musculus [6]): Non-toxic | ED50 (Mus musculus [7]): < 0.3 mg/kg | Activity (Mus musculus [9]): Toxic | Activity (Mus musculus [11]): Non-toxic
